This is an account of results in patent US11970474B2, “Substituted benzodiazoles and use thereof in therapy” (THOMAS HELLEDAYS STIFTELSE FÖR MEDICINSK FORSKNING, priority 2018, dated 2024).

One test relates to CCL2. In words: Mouse CCL2 assay in MLE12 cells. It is filed as cell-based. The conditions noted are these: Mus musculus, MLE12, 30 h, MLE12 cells; TNF-α 20 ng/ml; supernatant after 30 hours; HTRF; read-out: CCL2 (EC50). The essentials: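 MLE12 mouse lung epithelial cells (7500/well, DMEM/F12 with 5% FBS) preincubated 1 h with compounds (6-point dose-response, duplicate), then stimulated with TNF-α (final 20 ng/ml) for 30 h at 37 °C. Secreted CCL2 measured by HTRF sandwich immunoassay (Ex330/Em620, 665 nm) against standard curve; IC50 from delta ratios.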
Background: TR-FRET usually uses a lanthanide donor and a delayed reading to cut background.

The next test concerns BALB/c mice. In words: Recruitment of neutrophils to mouse airways. It is filed as in vivo. The conditions noted are these: 25 mg/kg intraperitoneally; intranasal TNFα or lipopolysaccharide; lungs lavaged after 16 h. How it is done:
Six- to 8-wk-old BALB/c mice (˜20 g; Harlan Sprague Dawley, San Diego, CA) were injected 25 mg/kg intraperitoneally 3 h before and at the time of intranasal TNF-α challenge essentially as described in Ba, Xueqing, et al., The Journal of Immunology, 192(5), 2384-94 (2014). To evaluate inflammation, bronchoalveolar lavage fluids (BALF) were collected 16 h after challenge, processed, cytospin slides were stained with Wright-Giemsa, and the number of neutrophils was counted. All experiments were performed according to the National Institutes of Health Guidelines for the Care and Use of Laboratory Animals.

The next test concerns THP1. In words: Cell viability assay (resazurin). It is filed as cell-based. The conditions noted are these: Homo sapiens, THP-1, 120 h, Cancer, Acute Monocytic Leukemia, five day incubation. How it is done:
(§1) A dilution series of compound or vehicle are transferred to 96-well plates. Cells are seeded into the plate (500-10,000 cells/well) in suitable media and incubated for five days in 5% CO2 at 37° C. Thereafter, resazurin (diluted in suitable medium or PBS) are added to a final concentration 10 μg/ml resazurin at 37° C. for 2-4 hours before measuring the fluorescence (Ex544/Em590), essentially as described (Riss, Terry L. et al., “Cell Viability Assays.” In Assay Guidance Manual, ed. G. Sitta Sittampalam, et al. Bethesda (Md.): Eli Lilly & Company and the National Center for Advancing Translational Sciences (2004) http://www.ncbi.nlm.nih.gov/books/NBK144065/).
(§2) The compounds to be tested are nano-dispensed in duplicate in 11 concentrations, directly in 384-well cell plates, with a final DMSO concentration<1%. Cells are seeded in cell plates, pre-dispensed with compounds (200-2500 cells/well in 50 μl). After three or five days culture in 5% CO2, 37° C., resazurin diluted in PBS is added, 10 μl/well, to a final concentration of 10 μg/ml and cells are incubated 2-4 hours before measuring fluorescence (Ex544/Em590), as described (ibid.). Results obtained for selected example compounds described herein on cancer- and non-transformed cell lines are provided in the table below (Table 3) and summarized in FIG. 1. Where indicated, combination indexes was measured with CompuSyn software (www.compusyn.com) by the method of Chou-Talalay (Chou, Ting-Chao., Cancer Research, 70(2), 440-46 (2010)).
A general note: Alamar Blue is a resazurin reagent that responds to reducing activity.

The next test has as its system NB-4. Nature of the test: Cell viability assay (resazurin). In kind it is cell-based. The conditions noted are these: Homo sapiens, 120 h, Cancer, acute promyelocytic leukemia, five day incubation. How it is done: as §1, §2
Another test deals with Hec59 + Chr2. Nature of the test: Cell viability assay (resazurin). The following applies: 120 h, Cancer, endometrioid adenocarcinoma, five day incubation. It is filed as cell-based. How it is done: as §1, §2
The next test deals with SW1271. In words: Cell viability assay (resazurin). In kind it is cell-based. The conditions noted are these: 120 h, Cancer, Small Cell Lung Carcinoma, five day incubation. How it is done: as §1, §2
In another test the test system is K562. In words: Cell viability assay (resazurin). It is filed as cell-based. The conditions noted are these: Homo sapiens, 120 h, Cancer, Chronic Myelogenous Leukemia, five day incubation. How it is done:
as §1, §2

In a further test the test system is Hec59. In words: Cell viability assay (resazurin). It is filed as cell-based. The conditions noted are these: 120 h, Cancer, endometrioid adenocarcinoma, five day incubation. How it is done: as §1, §2

On to `Cc1cc(NC(=O)N2CCC(n3c(=O)[nH]c4c(Br)cccc43)CC2)ccc1I` [Example 50, 4-(4-Bromo-2-oxo-2,3-dihydro-1H-1,3-benzodiazol-1-yl)-N-(4-iodo-3-methylphenyl)piperidine-1-carboxamide], for which the EC50 (commonly the midpoint of the concentration-response curve) in the test on CCL2 came out at 15.4 µM.
As to `O=C(Nc1ccc(I)cc1)N1CCC(n2c(=O)[nH]c3c(Br)cccc32)CC1` [Example 13, 4-(4-Bromo-2-oxo-2,3-dihydro-1H-1,3-benzodiazol-1-yl)-N-(4-iodophenyl)piperidine-1-carboxamide], the “recruitment of neutrophils to mouse airways” value with BALB/c mice was “reduces recruitment of neutrophils”. The EC50 in the test on THP1 was determined as 23 µM; in the test on NB-4, 5 µM; in the test on Hec59 + Chr2, 16 µM; in the test with SW1271, 22 µM; with K562 it was 20 µM; in the test on Hec59, 17 µM. Moreover, the EC50 in the test on CCL2 was determined as 18.8 µM.
For `O=C(Nc1ccc(Cl)c(Cl)c1)N1CCC(n2c(=O)[nH]c3c(-c4ccc(CO)nc4)cccc32)CC1` [Example 28, N-(3,4-dichlorophenyl)-4-{4-[6-(hydroxymethyl)pyridin-3-yl]-2-oxo-2,3-dihydro-1H-1,3-benzodiazol-1-yl}piperidine-1-carboxamide], the EC50 in the test with THP1 stood at 19 µM; in the test with NB-4, 11 µM; with Hec59 + Chr2, 17 µM; in the test on SW1271 it was 25 µM; with K562, 21 µM; in the test on Hec59 it was 11 µM. Moreover, the EC50 in the test on CCL2 worked out at 17 µM.
